US11725000B2, “Apoptosis inhibitors” (National Institute of Biological Sciences, Beijing, priority 2017, dated 2023)
Where two headings read alike, the source gives them in different places.

System: U2OS_Bim cells
Test: Apoptosis inhibition assay (Bim-induced apoptosis, cell viability by ATP level)
Assay type: cell-based
Settings: U2OS_Bim cells, numbering of Tables 4a/4b, read-out: EC50
Experimental: A chemical library containing 200000 compounds was screened according to the following procedure: U2OS_Bim cells (a cell line in which the BH3-only protein Bim can be inducibly expressed by the addition of Doxycycline to the growth medium)^[2] were plated in 384-well plates with 30 μl medium at a density of 500 cells per well. 16 hrs after plating, test compounds were transferred from stock plates to the assay plates with the cultured cells. Positive control (20 μM zVAD) and negative control (DMSO) were added to every plate. 1 hr after compound treatment, 0.1 ug/mL Doxycyclin (DOX) was added to induce the expression of the Bim protein. After 24 hrs, cell viability was determined by measuring the ATP levels using a Cell Titer-Glo kit (Promega, G7570) according to the manufacturer's instructions. Luminescence was recorded with a PerkinElmer EnSpire Multimode Plate Reader. Compounds that could rescue cell viability to a level above 50% were selected; these compounds were then screened a second time for assurance.
U2OS_Bim or U2OS_tBid cells were plated at a density of 3000 cells per well in 96-well plates. 24 hrs later, cells were treated with experimental compounds, zVAD (positive control) and DMSO (Negative control) for one hour. The cells were then treated with 0.1 μg/mL DOX to trigger apoptosis. 24 hours after the addition of DOX, cell viability was determined by measuring the ATP levels using a Cell Titer-Glo kit. Cell survival rate was calculated.
U2OS_Bim cells (a U2OS stable cell line transfected with a Bim transgene) were cultured in DMEM culture medium (Gibico). On day one, U2OS_Bim cells were plated in 96-well plates at a density of 3000 cells per well. On day two, cells were pretreated with compounds for one hour. Then cells were treated with 0.1 μg/mL doxycycline (DOX) to trigger apoptosis. 24 hours after DOX treatment, cell viability was determined by measuring the ATP levels using the Cell Titer-Glo kit (G7570, Promega), according to the manufacturer's instructions. Luminescence was recorded with a PerkinElmer EnSpire Multimode Plate Reader. Survived cells were normalized to those cells treated with DMSO. zVAD (20 μM) was used as a positive control. Activity data for compounds […] are represented as means f standard deviation of duplicates; activity data for compounds 187-274 are estimated based on preliminary results.

[1] = estimated based on preliminary results
[2] = estimated (*Est.) / preliminary results

| SMILES | EC50 (means of duplicates) [µM] | also measured |
| --- | --- | --- |
| Cc1cc(-c2cc(F)c(=O)n(Cc3ccc4nc[nH]c4c3)c2)nc(S(=O)(=O)CCC(OCc2ccccc2F)c2ccccc2)n1 (centres unmarked) [Compound 322, 1-((1H-benzo[d]imidazol-6-yl)methyl)-3-fluoro-5-(2-(3-(2-fluorobenzyloxy)-3-phenylpropylsulfonyl)-6-methylpyrimidin-4-yl)pyridin-2 (1H)-one] | 0.001 to 1 | – |
| CS(=O)(=O)c1nc(-c2ccc(=O)n(Cc3ccc(N=[N+]=[N-])cc3)c2)cc(C(F)(F)F)n1 [Compound 123, 1-(4-azidobenzyl)-5-(2-(methylsulfonyl)-6-(trifluoromethyl)pyrimidin-4-yl)pyridin-2 (1H)-one] | < 100 | – |
| CCOc1cccc(Cn2cc(-c3cc(C(F)(F)F)nc([S+](C)[O-])n3)ccc2=O)c1 (centres unmarked) [Compound 268] | – | EC50 [1]: < 10 µM |
| C=CS(=O)(=O)c1nc(-c2ccc(=O)n(Cc3ccc(OC)c(OC)c3)c2)cc(C(F)(F)F)n1 [Compound 142, 1-(3,4-dimethoxybenzyl)-5-(6-(trifluoromethyl)-2-(vinylsulfonyl)pyrimidin-4-yl)pyridin-2 (1H)-one] | 1 to 10 | – |
| Cc1cc(-c2cc(F)c(=O)n(Cc3ccc4ocnc4c3)c2)nc(S(=O)(=O)CCC(OCc2ccccc2F)c2ccccc2)n1 (centres unmarked) [Compound 329, 1-(benzo[d]oxazol-5-ylmethyl)-3-fluoro-5-(2-((3-((2-fluorobenzyl)oxy)-3-phenylpropyl)sulfonyl)-6-methylpyrimidin-4-yl)pyridin-2 (1H)-one] | 0.001 to 1 | – |
| CNc1ccc(Cn2cc(-c3cc(C(F)(F)F)nc([S+](C)[O-])n3)ccc2=O)cc1OC (centres unmarked) [Compound 237] | – | EC50 [1]: < 10 µM |
| Cc1cc(-c2cc(F)c(=O)n(Cc3ccc4ccn(C)c4c3)c2)nc(S(=O)(=O)CCC(OCc2ccccc2F)c2ccccc2)n1 (centres unmarked) [Compound 348] | – | EC50 [2]: 0.001 to 1 µM |
| CS(=O)(=O)c1nc(-c2ccc(=O)n(Cc3ccc(C#N)cc3)c2)cc(C(F)(F)F)n1 [Compound 119, 4-((5-(2-(methylsulfonyl)-6-(trifluoromethyl)pyrimidin-4-yl)-2-oxopyridin-1 (2H)-yl)methyl)benzonitrile] | 1 to 10 | – |
| CCOc1cccc(Cn2cc(-c3cc(C)nc([S+]([O-])CCC(OCc4ccc(F)cc4F)c4ccccc4)n3)cc(F)c2=O)c1 (centres unmarked) [Compound 310, 5-(2-((3-((2,4-difluorobenzyl)oxy)-3-phenylpropyl)sulfinyl)-6-methylpyrimidin-4-yl)-1-(3-ethoxybenzyl)-3-fluoropyridin-2 (1H)-one] | 1 to 10 | – |
| COc1ccc(Cn2cc(-c3cc(-n4ccnc4)nc(S(C)(=O)=O)n3)ccc2=O)cc1OC [Compound 222] | – | EC50 [1]: < 10 µM |
| COc1cn(Cn2cc(-c3cc(C(F)(F)F)nc([S+](C)[O-])n3)ccc2=O)cc1OC (centres unmarked) [Compound 259] | – | EC50 [1]: < 10 µM |
| C[S+]([O-])c1nc(-c2ccc(=O)n(Cc3ccc4nccnc4c3)c2)cc(C(F)(F)F)n1 (centres unmarked) [Compound 245] | – | EC50 [1]: < 10 µM |
| COc1ccc(Cn2cc(-c3cc(C(F)F)nc(S(C)(=O)=O)n3)cc(F)c2=O)cc1OC [Compound 165, 5-(6-(difluoromethyl)-2-(methylsulfonyl)pyrimidin-4-yl)-1-(3,4-dimethoxybenzyl)-3-fluoropyridin-2 (1H)-one] | 0.001 to 1 | – |
| COc1ccc(Cn2cc(-c3cc(C(F)(F)F)nc(S(C)(=O)=O)n3)ccc2=O)cc1 [Compound 110, 1-(4-Methoxybenzyl)-5-(2-(methylsulfonyl)-6-(trifluoromethyl)pyrimidin-4-yl)pyridin-2 (1H)-one] | 0.001 to 1 | – |
| Cc1cc(-c2cc(F)c(=O)n(Cc3ccc4c(c3)OCO4)c2)nc(S(=O)(=O)CCC(OCc2ccco2)c2ccccc2)n1 (centres unmarked) [Compound 407] | – | EC50 [2]: 0.001 to 1 µM |
| Cc1cc(-c2cc(F)c(=O)n(Cc3ccc4c(c3)OCO4)c2)nc(S(=O)(=O)CCC(OCC2CN2C)c2ccccc2)n1 (centres unmarked) [Compound 420] | – | EC50 [2]: 0.001 to 1 µM |
| CS(=O)(=O)c1nc(-c2ccccc2C#N)cc(C(F)(F)F)n1 [Compound 55, 2-(2-(methylsulfonyl)-6-(trifluoromethyl)pyrimidin-4-yl)benzonitrile] | 1 to 20 | – |
| CNC(=O)CCCS(=O)(=O)c1nc(-c2ccc(=O)n(Cc3ccc(OC)c(OC)c3)c2)cc(C(F)F)n1 [Compound 176, 4-((4-(difluoromethyl)-6-(1-(3,4-dimethoxybenzyl)-6-oxo-1,6-dihydropyridin-3-yl)pyrimidin-2-yl)sulfonyl)-N-methylbutanamide] | 1 to 10 | – |

| SMILES | EC50 (means of duplicates) [µM] | also measured |
| --- | --- | --- |
| Cc1cc(-c2cc(F)c(=O)n(Cc3ccc4c(c3)OCO4)c2)nc(S(=O)(=O)CCC(OCC2CCNC2)c2ccccc2)n1 (centres unmarked) [Compound 413] | – | EC50 [2]: 0.001 to 1 µM |
| COc1ncccc1-c1cc(C(F)(F)F)nc([S+](C)[O-])n1 (centres unmarked) [Compound 79, 4-(2-Methoxypyridin-3-yl)-2-(methylsulfinyl)-6-(trifluoromethyl)pyrimidine] | < 100 | – |
| COc1ccc(Cn2cc(-c3cc(-n4cccc4)nc([S+](C)[O-])n3)ccc2=O)cc1OC (centres unmarked) [Compound 218] | – | EC50 [1]: < 10 µM |
| CS(=O)(=O)c1nc(-c2cccc(O)c2)cc(C(F)(F)F)n1 [Compound 50, 3-(2-(methylsulfonyl)-6-(trifluoromethyl)pyrimidin-4-yl)phenol] | < 100 | – |
| Cc1cc(-c2ccc(=O)n(Cc3ccc4c(c3)OCCO4)n2)nc(S(=O)(=O)CCC(OCc2ccccc2F)c2ccccc2)n1 (centres unmarked) [Compound 368] | – | EC50 [2]: 0.001 to 1 µM |
| COc1cc(Cl)c(Cn2cc(-c3cc(C(F)(F)F)nc(S(=O)(=O)CCCC(=O)N4CCOCC4)n3)ccc2=O)cc1OC [Compound 157, 1-(2-chloro-4,5-dimethoxybenzyl)-5-(2-((4-morpholino-4-oxobutyl)sulfonyl)-6-(trifluoromethyl)pyrimidin-4-yl)pyridin-2 (1H)-one] | 0.001 to 1 | – |
| COc1ccc(Cn2cc(-c3cc(C(F)F)nc(S(=O)(=O)CCCNC(C)=O)n3)ccc2=O)cc1OC [Compound 185, N-(3-((4-(difluoromethyl)-6-(1-(3,4-dimethoxybenzyl)-6-oxo-1,6-dihydropyridin-3-yl)pyrimidin-2-yl)sulfonyl)propyl)acetamide] | 1 to 10 | – |
| COc1ccc(Cn2cc(-c3cc(C(F)(F)F)nc(S(=O)(=O)CCC(OCc4ccccc4)c4ccccc4)n3)ccc2=O)cc1OC (centres unmarked) [Compound 281, 5-(2-((3-(benzyloxy)-3-phenylpropyl)sulfonyl)-6-(trifluoromethyl)pyrimidin-4-yl)-1-(3,4-dimethoxybenzyl)pyridin-2 (1H)-one] | 0.001 to 1 | – |
| Cc1cc(-c2cc(F)c(=O)n(Cc3ccc4c(c3)CC(=O)N4)c2)nc(S(=O)(=O)CCC(OCc2ccccc2F)c2ccccc2)n1 (centres unmarked) [Compound 350] | – | EC50 [2]: 0.001 to 1 µM |
| Cc1cc(-c2cc(F)c(=O)n(Cc3ccc4c(c3)OCO4)c2)nc(S(=O)(=O)CCCC(=O)N(c2ccccc2)C2CCC2)n1 [Compound 370] | – | EC50 [2]: 0.001 to 1 µM |
| Cc1cc(-c2cc(F)c(=O)n(CC3CCOCC3)c2)nc(S(=O)(=O)CCC(OCc2ccc(F)cc2F)c2ccccc2)n1 (centres unmarked) [Compound 314, 5-(2-(3-(2,4-difluorobenzyloxy)-3-phenylpropylsulfonyl)-6-methylpyrimidin-4-yl)-3-fluoro-1-((tetrahydro-2H-pyran-4-yl)methyl)pyridin-2 (1H)-one] | 0.001 to 1 | – |
| CS(=O)(=O)c1nc(-c2ccc(=O)n(Cc3ccc(Cl)cc3F)c2)cc(C(F)(F)F)n1 [Compound 124, 1-(4-chloro-2-fluorobenzyl)-5-(2-(methylsulfonyl)-6-(trifluoromethyl)pyrimidin-4-yl)pyridin-2 (1H)-one] | 0.001 to 1 | – |
| COc1ccc(Cn2cc(-c3cc(C(F)F)nc([S+]([O-])CCC(OCc4ccccc4F)c4ccccc4)n3)ccc2=O)cc1F (centres unmarked) [Compound 283, 5-(6-(difluoromethyl)-2-(3-(2-fluorobenzyloxy)-3-phenylpropylsulfinyl)pyrimidin-4-yl)-1-(3-fluoro-4-methoxybenzyl)pyridin-2 (1H)-one] | 0.001 to 1 | – |
| COc1cc(Cn2cc(-c3cc(C(F)F)nc(SC)n3)ccc2=O)cc(F)c1OC [Compound 171, 5-(6-(difluoromethyl)-2-(methylthio)pyrimidin-4-yl)-1-(3-fluoro-4,5-dimethoxybenzyl)pyridin-2 (1H)-one] | 0.001 to 1 | – |
| COc1ccc(Cn2cc(-c3cc(-c4ncco4)nc([S+](C)[O-])n3)ccc2=O)cc1OC (centres unmarked) [Compound 210] | – | EC50 [1]: < 10 µM |
| COc1ccc(Cn2cc(-c3cc(C(F)(F)F)nc(S(=O)(=O)CCCC(=O)N4CCCC4)n3)ccc2=O)cc1OC [Compound 152, 1-(3,4-dimethoxybenzyl)-5-(2-((4-oxo-4-(pyrrolidin-1-yl)butyl)sulfonyl)-6-(trifluoromethyl)pyrimidin-4-yl)pyridin-2 (1H)-one] | 0.001 to 1 | – |
| COC(=O)c1ccccc1-c1cc(C(F)(F)F)nc([S+](C)[O-])n1 (centres unmarked) [Compound 59, methyl 2-(2-(methylsulfinyl)-6-(trifluoromethyl)pyrimidin-4-yl)benzoate] | 1 to 10 | – |
